From ChEMBL document CHEMBL1201862, “PubChem BioAssay data set” (2004)
Activity calls are given as the source filed them.

Legend:
[1] = HEK-293T viability loss after treatment – luminescence, T-cell screen hits, cytotoxicity control for TCR NF-kB inhibitor project, dose response (AID 489026); format: functional, cell-based;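 further: cells exposed to compound about 14 hours before the viability readout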
[2] = biological target: T1, Short transient receptor potential channel 4 (Mus musculus, UniProt Q9QUQ5); experiment: calcium entry via TRPC4 opening agents – cell-based, HEK293 TRPC4/mu-opioid, Fluo-4 calcium, dose response (AID 434937); format: functional
T1 sequence (Q9QUQ5 whole entry): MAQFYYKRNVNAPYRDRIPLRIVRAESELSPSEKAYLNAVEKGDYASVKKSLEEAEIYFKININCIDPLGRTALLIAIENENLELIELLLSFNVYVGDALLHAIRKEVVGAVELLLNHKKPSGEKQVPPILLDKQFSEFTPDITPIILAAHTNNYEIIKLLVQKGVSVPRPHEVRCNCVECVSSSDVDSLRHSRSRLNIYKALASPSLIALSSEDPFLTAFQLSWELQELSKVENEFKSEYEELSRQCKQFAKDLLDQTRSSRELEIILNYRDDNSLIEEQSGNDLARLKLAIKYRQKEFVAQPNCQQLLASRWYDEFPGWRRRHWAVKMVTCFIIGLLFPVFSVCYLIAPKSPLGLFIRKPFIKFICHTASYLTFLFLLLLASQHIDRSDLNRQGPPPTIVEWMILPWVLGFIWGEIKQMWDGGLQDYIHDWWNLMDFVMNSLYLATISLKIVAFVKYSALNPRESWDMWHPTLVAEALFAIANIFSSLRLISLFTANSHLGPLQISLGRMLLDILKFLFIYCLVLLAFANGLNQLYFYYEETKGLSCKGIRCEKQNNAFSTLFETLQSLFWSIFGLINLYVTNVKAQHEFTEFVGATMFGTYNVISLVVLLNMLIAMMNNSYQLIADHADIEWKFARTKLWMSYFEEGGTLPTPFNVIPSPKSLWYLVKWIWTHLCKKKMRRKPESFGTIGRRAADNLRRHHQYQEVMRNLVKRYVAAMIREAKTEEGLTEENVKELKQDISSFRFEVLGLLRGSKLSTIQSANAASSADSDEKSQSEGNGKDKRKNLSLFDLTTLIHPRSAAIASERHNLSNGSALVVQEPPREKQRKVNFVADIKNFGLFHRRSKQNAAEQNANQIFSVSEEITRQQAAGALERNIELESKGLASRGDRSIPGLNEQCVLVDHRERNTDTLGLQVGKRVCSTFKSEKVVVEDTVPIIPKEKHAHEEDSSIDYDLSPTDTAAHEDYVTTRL

[3] = HEK-293T cell viability reduction – luminescence, B-cell screen hits, cytotoxicity control for BCR NF-kB inhibitor project, dose response (AID 489021); format: functional, cell-based;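 further: HEK-293T cells carrying an NF-kB luciferase reporter; cells exposed to compound for about 14 hours before viability readout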
[4] = biological target: T2, Estrogen receptor (Homo sapiens, UniProt P03372);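 further: potency for inhibiting coactivator peptide recruitment to the receptor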
T2 sequence (P03372 whole entry): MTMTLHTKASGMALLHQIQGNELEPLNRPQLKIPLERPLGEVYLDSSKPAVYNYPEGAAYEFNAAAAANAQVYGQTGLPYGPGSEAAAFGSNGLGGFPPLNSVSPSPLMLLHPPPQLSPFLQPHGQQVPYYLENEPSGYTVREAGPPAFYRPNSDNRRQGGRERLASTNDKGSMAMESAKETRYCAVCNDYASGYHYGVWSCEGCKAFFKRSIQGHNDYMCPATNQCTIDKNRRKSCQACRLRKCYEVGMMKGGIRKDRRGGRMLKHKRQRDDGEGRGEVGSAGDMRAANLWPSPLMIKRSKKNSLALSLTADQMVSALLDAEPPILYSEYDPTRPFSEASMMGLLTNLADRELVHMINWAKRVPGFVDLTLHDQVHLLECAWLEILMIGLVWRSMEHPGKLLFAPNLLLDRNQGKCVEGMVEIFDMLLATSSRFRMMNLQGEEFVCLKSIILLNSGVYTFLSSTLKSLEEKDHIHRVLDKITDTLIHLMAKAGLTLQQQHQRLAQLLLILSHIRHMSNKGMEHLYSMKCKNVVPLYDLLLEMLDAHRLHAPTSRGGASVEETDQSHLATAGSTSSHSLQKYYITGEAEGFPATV

[5] = HPDE-C7 pancreatic duct cell viability loss – fluorescence, HTS (AID 430); format: functional, cell-based; settings: Homo sapiens
[6] = viability loss of HPDE-C7K cells – cell-based, fluorescence, HTS, primary screen (AID 431); format: functional; settings: Homo sapiens
[7] = A cytotoxicity screen of small molecule inhibitors of the PhoP region in Salmonella typhi identified in the primary screen. [Related pubchem assays: 1850, 1864, 1985 ]; format: functional
[8] = biological target: Voltage-dependent T-type calcium channel subunit alpha-1H (Homo sapiens, UniProt O95180); format: functional;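 further: channel activity triggered by adding a high calcium stimulation buffer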
[9] = biological target: Eukaryotic translation initiation factor 4E (Mus musculus, UniProt P63073); experiment: blockers of eIF4G binding by eIF4E – biochemical, TR-FRET, dose response (AID 855); format: functional;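 further: potency for disrupting eIF4E binding to eIF4GI seen as loss of FRET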
Eukaryotic translation initiation factor 4E, sequence (P63073 whole entry): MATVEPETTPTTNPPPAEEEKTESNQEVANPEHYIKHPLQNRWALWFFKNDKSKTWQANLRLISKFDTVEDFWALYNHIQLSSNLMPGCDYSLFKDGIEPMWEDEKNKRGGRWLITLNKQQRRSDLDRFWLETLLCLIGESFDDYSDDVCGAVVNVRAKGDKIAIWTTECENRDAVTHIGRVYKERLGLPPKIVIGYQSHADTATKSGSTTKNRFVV

Voltage-dependent T-type calcium channel subunit alpha-1H, sequence (O95180 whole entry): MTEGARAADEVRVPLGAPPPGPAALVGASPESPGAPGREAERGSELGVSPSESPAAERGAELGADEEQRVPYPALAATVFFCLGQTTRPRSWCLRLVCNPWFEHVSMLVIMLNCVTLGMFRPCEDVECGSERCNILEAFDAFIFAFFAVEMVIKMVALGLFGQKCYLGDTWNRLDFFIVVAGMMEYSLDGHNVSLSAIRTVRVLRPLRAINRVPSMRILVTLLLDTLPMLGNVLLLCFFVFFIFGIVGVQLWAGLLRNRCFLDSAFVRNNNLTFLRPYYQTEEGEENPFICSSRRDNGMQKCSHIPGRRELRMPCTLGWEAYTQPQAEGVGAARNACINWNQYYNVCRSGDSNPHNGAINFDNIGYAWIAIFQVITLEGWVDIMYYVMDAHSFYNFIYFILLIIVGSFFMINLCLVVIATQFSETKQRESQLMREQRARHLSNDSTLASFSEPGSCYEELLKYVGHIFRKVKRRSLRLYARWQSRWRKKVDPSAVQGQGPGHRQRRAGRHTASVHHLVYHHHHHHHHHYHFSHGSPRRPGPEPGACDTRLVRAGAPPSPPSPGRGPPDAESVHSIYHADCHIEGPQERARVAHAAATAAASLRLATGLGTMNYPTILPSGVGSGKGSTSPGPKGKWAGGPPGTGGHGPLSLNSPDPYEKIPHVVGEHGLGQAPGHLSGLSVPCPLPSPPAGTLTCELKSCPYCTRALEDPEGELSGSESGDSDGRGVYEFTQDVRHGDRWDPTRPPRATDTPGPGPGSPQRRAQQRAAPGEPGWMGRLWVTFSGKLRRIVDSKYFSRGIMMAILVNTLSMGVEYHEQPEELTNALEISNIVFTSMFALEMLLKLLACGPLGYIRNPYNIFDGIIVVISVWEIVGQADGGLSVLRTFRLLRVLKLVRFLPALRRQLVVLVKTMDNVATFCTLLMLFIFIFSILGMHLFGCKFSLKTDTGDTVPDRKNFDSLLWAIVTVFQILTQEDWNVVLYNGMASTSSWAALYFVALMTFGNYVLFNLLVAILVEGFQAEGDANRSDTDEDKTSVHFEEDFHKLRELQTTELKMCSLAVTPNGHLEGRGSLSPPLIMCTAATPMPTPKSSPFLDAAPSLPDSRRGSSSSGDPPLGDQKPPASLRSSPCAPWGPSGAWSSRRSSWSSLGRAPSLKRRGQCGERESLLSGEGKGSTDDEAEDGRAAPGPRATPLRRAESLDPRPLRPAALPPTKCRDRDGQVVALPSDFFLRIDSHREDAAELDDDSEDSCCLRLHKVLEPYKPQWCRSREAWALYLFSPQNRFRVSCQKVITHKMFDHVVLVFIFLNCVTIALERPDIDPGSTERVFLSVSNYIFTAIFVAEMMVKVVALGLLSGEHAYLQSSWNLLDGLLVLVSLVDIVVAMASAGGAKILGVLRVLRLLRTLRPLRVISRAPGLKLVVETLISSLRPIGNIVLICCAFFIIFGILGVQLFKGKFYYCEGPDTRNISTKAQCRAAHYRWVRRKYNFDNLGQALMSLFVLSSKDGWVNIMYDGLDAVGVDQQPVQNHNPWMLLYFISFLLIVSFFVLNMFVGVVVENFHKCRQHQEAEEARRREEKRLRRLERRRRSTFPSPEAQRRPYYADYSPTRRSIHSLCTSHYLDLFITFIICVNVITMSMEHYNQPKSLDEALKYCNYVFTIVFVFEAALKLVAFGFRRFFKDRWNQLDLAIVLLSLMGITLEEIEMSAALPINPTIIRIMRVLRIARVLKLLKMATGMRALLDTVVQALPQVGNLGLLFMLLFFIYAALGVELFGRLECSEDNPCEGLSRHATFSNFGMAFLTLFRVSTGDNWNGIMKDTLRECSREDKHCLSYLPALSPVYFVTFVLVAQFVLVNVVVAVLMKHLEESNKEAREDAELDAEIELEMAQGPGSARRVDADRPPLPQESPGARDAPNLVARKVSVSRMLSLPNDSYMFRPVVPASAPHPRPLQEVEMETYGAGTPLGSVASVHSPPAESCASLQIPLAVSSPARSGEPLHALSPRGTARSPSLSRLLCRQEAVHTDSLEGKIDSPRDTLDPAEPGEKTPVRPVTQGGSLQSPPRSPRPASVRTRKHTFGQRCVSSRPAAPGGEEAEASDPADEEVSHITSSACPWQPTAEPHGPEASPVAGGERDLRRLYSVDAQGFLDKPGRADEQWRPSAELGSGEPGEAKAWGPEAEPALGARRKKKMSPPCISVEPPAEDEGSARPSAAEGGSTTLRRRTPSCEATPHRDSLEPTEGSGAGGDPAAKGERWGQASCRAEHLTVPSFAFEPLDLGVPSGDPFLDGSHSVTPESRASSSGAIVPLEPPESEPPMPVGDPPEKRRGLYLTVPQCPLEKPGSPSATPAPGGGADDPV

## CCOC(=O)c1[nH]c(C)c(C(=O)Nc2cc(OC)ccc2OC)c1C
[1]
  IC50: > 80 µM (inactive)

## Cc1ccn(CC(=O)NC2CCCN(Cc3ccc(CC(C)C)cc3)C2)n1 (stereo not given)
[2]
  EC50: 1.68 µM (active)

## Cc1cc(-c2ccc(S(=O)(=O)N(C)c3ccc(C)c(C)c3)s2)on1
[1]
  IC50: > 80 µM (inactive)

## Cn1c(=O)cc(Nc2ccccc2)c2c(=O)n(-c3ccccc3)c(=O)n(-c3ccccc3)c21
[3]
  IC50: > 80 µM (inactive)

## COc1cc(C)c(S(=O)(=O)NCc2ccc3c(c2)OCO3)cc1C
[4]
  IC50: > 50 µM (not active)

## Cc1cc(NCc2ccccc2)nc(-c2ccccc2O)n1
[5]
  EC50: 19.2 µM (active)
[6]
  EC50: 10.3 µM (active)

## c1cnc2nc(-c3ccc4c(c3)OCO4)cn2c1
[7]
  EC50: > 50 µM (active)

## C=CCn1c(SC(C)C(=O)NCCC2=CCCCC2)nc2ccccc2c1=O (stereo not given)
[8]
  EC50: 3.01 µM (active)

## Cc1cc(CSc2ccccc2)ccc1NC(=O)c1cccc([N+](=O)[O-])c1
[9]
  IC50: > 64 µM (inactive)

## CSc1nccc(-c2nn(-c3ccc(C)cc3)ccc2=O)n1
[1]
  IC50: > 80 µM (inactive)

## CC(C)(C)n1nnnc1C(c1cccs1)N1CCCc2ccccc21 (stereo not given)
[8]
  EC50: 8.88 µM (active)

## O=C(OCn1nnc2ccccc2c1=O)c1cn(-c2ccccc2)nc1-c1cccnc1
[4]
  IC50: > 50 µM (not active)

## CCN1CCN(c2nc3ccccc3nc2C(C#N)S(=O)(=O)c2ccc(C)cc2)CC1 (stereo not given)
[7]
  EC50: > 50 µM (active)

## O=C(COc1ccc(Cl)cc1Cl)Nc1nc2n(n1)C(c1ccccc1)CC(=O)N2 (stereo not given)
[8]
  EC50: 1.98 µM (active)
